# Assay results as given in US20220096505A1, “PHARMACEUTICAL COMPOSITION, METHODS FOR TREATING AND USES THEREOF” (Boehringer Ingelheim International GmbH, priority 2011, published 2022).
# How the values were obtained:
# [1] = in vivo; cited from earlier work
# [2] = metformin on its own, in the diabetic; cited from earlier work
# [3] = Particle size distribution measurement by laser diffraction; assay type: physicochemical; settings: milled active substance
# From the text: The value X90 refers to the 90% value of the volume distribution measured using a laser diffractometer. In other words, for the purposes of the present invention, the X90 value denotes the particle size below which 90% of the quantity of particles is found based on the volume distribution. Analogously the value X50 refers to the 50% value (median) of the volume distribution measured using a laser diffractometer. In other words, for the purposes of the present invention, the X50 value denotes the particle size below which 50% of the quantity of particles is found based on the volume distribution. Analogously the value X10 refers to the 10% value of the volume distribution measured using a laser diffractometer. In other words, for the purposes of the present invention, the X10 value denotes the particle size below which 10% of the quantity of particles is found based on the volume distribution.
# Preferably all X90, X50, X10 values hereinbefore and hereinafter are by volume and determined by laser-diffraction method, in particular low angle laser light scattering, i.e. Fraunhofer diffraction. A preferred test is described in the experimental section. The laser diffraction method is sensitive to the volume of a particle and provides a volume-average particle size, which is equivalent to the weight-average particle size if the density is constant. The skilled artesian knows that the results of the particle size distribution determination by one technique can be correlated with that from another technique, for example on an empirical basis by routine experimentation. Alternatively the particle size distribution in the pharmaceutical composition or dosage form can be determined by microscopy, in particular electron microscopy or scanning electron microscopy.
# Examples of typical particle size distribution values X90, X50 and X10 for the preferred active pharmaceutical ingredient according to the invention are shown in the table below.
# 3. Particle Size Distribution Measurement by Laser Diffraction
# Particle size distribution measurement is performed for example via light scattering or laser diffraction technique. To determine the particle size the powder is fed into a laser diffraction spectrometer for example by means of a dispersing unit. The test method is described below in detail:
# Equipment: Laser Diffraction Spectrometer Sympatec HELOS Particle Sizer.
# Lens: R31 (0.5/0.9 μm-175 μm) Sample Dispersing Unit: Dry disperser RODOS/M
# Feed Velocity: 60.00 mm/s Primary pressure: 2.00 bar Injector depression: maximize (mbar)2 Reference Measurement: 10 seconds Cycle Time: 100 msec Trigger Conditions: Start 0.0 seconds after optical concentration ≥1% valid always Stop after 5.0 seconds optical concentration ≤1% or after 30 seconds real time Optical Concentration: Approximately range 3-12%
# Number of measurements: 2 (duplicate)
# The instrument is set up according to the manufacturer's recommendation and using the manufacturer provided software. The sample container is thoroughly mixed and tumbled prior to removing a portion of the sample to ensure that a representative sample is tested. Duplicate samples are prepared by using a spatula to transfer approximately 100 mg of a sample into the ASPIROS glass vials and cap the vials. The capped cials are placed into the feeder.
# [4] = listed as Active substance Batch 1
# [5] = listed as Active substance Batch 2
compound,measurement,setting,value
CC#CCn1c(N2CCC[C@@H](N)C2)nc2c1c(=O)n(Cc1nc(C)c3ccccc3n1)c(=O)n2C [linagliptin],route of excretion,[1],primarily excreted by bile and the gut
CN(C)C(=N)N=C(N)N [metformin],average improvement in the HbA1c value,[2],1.0-1.5%
1-chloro-4-(β-D-glucopyranos-1-yl)-2-[4-((S)-tetrahydrofuran-3-yloxy)-benzyl]-benzene [compound (I.9)],"X10 (10% value of the volume distribution, particle size)",[3]; [4],1.8 μm
same,"X50 (50% value, median, of the volume distribution, particle size)",[3]; [4],18.9 μm
same,"X90 (90% value of the volume distribution, particle size)",[3]; [4],45.3 μm
same,"X10 (10% value of the volume distribution, particle size)",[3]; [5],1.7 μm
same,"X50 (50% value, median, of the volume distribution, particle size)",[3]; [5],12.1 μm
same,"X90 (90% value of the volume distribution, particle size)",[3]; [5],25.9 μm
